# Data: patent US9371363B2, “Peptides and their use” (Novabiotics Limited, priority 2007, dated 2016)
# Like-named read-outs stand apart in the source and are kept apart here. Where no end group is shown, it is not given here.
# Key:
# Assay type in all cases: cell-based
# P. acnes = tested on: P. acnes
# Protocol: (§1) Broth Dilution Antibacterial Susceptibility Testing
# (§2) The sensitivity of relevant bacterial strains to the peptides (was determined using Clinical Laboratory Standard Institute (CLSI; formerly NCCLS) Approved Standards. Bacterial susceptibility was tested using “Methods for Dilution Antimicrobial Susceptibility Tests for Bacteria That Grow […]; Approved Standard—Seventh Edition M7-A7”
# S. aureus = tested on: S. aureus
# Protocol: as §1, §2
# Ps. aeruginosa = tested on: Ps. aeruginosa
# Protocol: as §1, §2
# [1] = Ps. aeruginosa, CLSI broth dilution
# [2] = S. aureus, values marked * in mg/ml
# [3] = P. acnes, values marked * in mg/ml
Molecule,"Minimum Inhibitory Concentration, antimicrobial activity, S. aureus (S. aureus) [mM]",further results
"N=C(N)NCCC[C@H](NC(=O)[C@H](CCCNC(=N)N)NC(=O)[C@H](CCCNC(=N)N)NC(=O)[C@H](CCCNC(=N)N)NC(=O)[C@H](CCCNC(=N)N)NC(=O)[C@H](CCCNC(=N)N)NC(=O)[C@H](CCCNC(=N)N)NC(=O)[C@H](CCCNC(=N)N)NC(=O)[C@@H](N)CCCNC(=N)N)C(=O)O [NP316, RRRRRRRRR (SEQ ID NO: 12)]",–,"Minimum Inhibitory Concentration, antimicrobial activity, P. acnes (P. acnes; P. acnes, CLSI broth dilution): 0.0313 mM"
"N=C(N)NCCC[C@H](NC(=O)[C@H](CCCNC(=N)N)NC(=O)[C@H](CCCNC(=N)N)NC(=O)[C@H](CCCNC(=N)N)NC(=O)[C@H](CCCNC(=N)N)NC(=O)[C@H](CCCNC(=N)N)NC(=O)[C@H](CCCNC(=N)N)NC(=O)[C@H](CCCNC(=N)N)NC(=O)[C@H](CCCNC(=N)N)NC(=O)[C@H](CCCNC(=N)N)NC(=O)[C@@H](N)CCCNC(=N)N)C(=O)O [NP317, RRRRRRRRRRR (SEQ ID NO: 13)]",0.25,–
"N=C(N)NCCC[C@H](NC(=O)[C@H](CCCNC(=N)N)NC(=O)[C@H](CCCNC(=N)N)NC(=O)[C@H](CCCNC(=N)N)NC(=O)[C@H](CCCNC(=N)N)NC(=O)[C@H](CCCNC(=N)N)NC(=O)[C@H](CCCNC(=N)N)NC(=O)[C@H](CCCNC(=N)N)NC(=O)[C@H](CCCNC(=N)N)NC(=O)[C@H](CCCNC(=N)N)NC(=O)[C@H](CCCNC(=N)N)NC(=O)[C@H](CCCNC(=N)N)NC(=O)[C@@H](N)CCCNC(=N)N)C(=O)O [NP318, RRRRRRRRRRRRR (SEQ ID NO: 14)]",0.125,"Minimum Inhibitory Concentration, antimicrobial activity, P. acnes (P. acnes): <0.0156 mM"
"N=C(N)NCCC[C@H](NC(=O)[C@H](CCCNC(=N)N)NC(=O)[C@H](CCCNC(=N)N)NC(=O)[C@H](CCCNC(=N)N)NC(=O)[C@H](CCCNC(=N)N)NC(=O)[C@H](CCCNC(=N)N)NC(=O)[C@H](CCCNC(=N)N)NC(=O)[C@H](CCCNC(=N)N)NC(=O)[C@H](CCCNC(=N)N)NC(=O)[C@H](CCCNC(=N)N)NC(=O)[C@H](CCCNC(=N)N)NC(=O)[C@H](CCCNC(=N)N)NC(=O)[C@@H](N)CCCNC(=N)N)C(=O)O [NP337, RRRRRRRRRRRRR (SEQ ID NO: 31)]",–,"Minimum Inhibitory Concentration, antimicrobial activity, P. acnes (P. acnes): 0.0025 mM"
CC(=O)N[C@@H](CCCNC(=N)N)C(=O)N[C@@H](CCCNC(=N)N)C(=O)N[C@@H](CCCNC(=N)N)C(=O)N[C@@H](CCCNC(=N)N)C(=O)N[C@@H](CCCNC(=N)N)C(=O)N[C@@H](CCCNC(=N)N)C(=O)N[C@@H](CCCNC(=N)N)C(=O)N[C@@H](CCCNC(=N)N)C(=O)N[C@@H](CCCNC(=N)N)C(=O)N[C@@H](CCCNC(=N)N)C(=O)N[C@@H](CCCNC(=N)N)C(=O)N[C@@H](CCCNC(=N)N)C(=O)N[C@@H](CCCNC(=N)N)C(N)=O [NP338],–,"Minimum Inhibitory Concentration, antimicrobial activity, Ps. aeruginosa (Ps. aeruginosa; [1]): 0.0625 mM; Minimum Inhibitory Concentration, antimicrobial activity, P. acnes (P. acnes): 0.005 mM"
"N=C(N)NCCC[C@@H](N)C(=O)N[C@H](CCCNC(=N)N)C(=O)N[C@H](CCCNC(=N)N)C(=O)N[C@H](CCCNC(=N)N)C(=O)N[C@H](CCCNC(=N)N)C(=O)N[C@H](CCCNC(=N)N)C(=O)N[C@H](CCCNC(=N)N)C(=O)N[C@H](CCCNC(=N)N)C(=O)N[C@H](CCCNC(=N)N)C(=O)N[C@H](CCCNC(=N)N)C(=O)N[C@H](CCCNC(=N)N)C(=O)N[C@H](CCCNC(=N)N)C(=O)N[C@H](CCCNC(=N)N)C(=O)O [NP339, dRdRdRdRdRdRdRdRdRdRdRdRdR (SEQ ID NO: 31)]",0.25,"Minimum Inhibitory Concentration, antimicrobial activity, Ps. aeruginosa (Ps. aeruginosa; [1]): 0.0625 mM; Minimum Inhibitory Concentration, antimicrobial activity, P. acnes (P. acnes): 0.02 mM"
"CC(=O)N[C@H](CCCNC(=N)N)C(=O)N[C@H](CCCNC(=N)N)C(=O)N[C@H](CCCNC(=N)N)C(=O)N[C@H](CCCNC(=N)N)C(=O)N[C@H](CCCNC(=N)N)C(=O)N[C@H](CCCNC(=N)N)C(=O)N[C@H](CCCNC(=N)N)C(=O)N[C@H](CCCNC(=N)N)C(=O)N[C@H](CCCNC(=N)N)C(=O)N[C@H](CCCNC(=N)N)C(=O)N[C@H](CCCNC(=N)N)C(=O)N[C@H](CCCNC(=N)N)C(=O)N[C@H](CCCNC(=N)N)C(N)=O [NP340, Ac-dRdRdRdRdRdRdRdRdRdRdRdRdR—NH2 (SEQ ID NO: 31)]",0.25,"Minimum Inhibitory Concentration, antimicrobial activity, Ps. aeruginosa (Ps. aeruginosa; [1]): 0.125 mM; Minimum Inhibitory Concentration, antimicrobial activity, P. acnes (P. acnes): 0.02 mM"
"N=C(N)NCCC[C@@H](N)C(=O)N[C@H](CCCNC(=N)N)C(=O)N[C@H](CCCNC(=N)N)C(=O)N[C@H](CCCNC(=N)N)C(=O)N[C@H](CCCNC(=N)N)C(=O)N[C@H](CCCNC(=N)N)C(=O)N[C@H](CCCNC(=N)N)C(=O)N[C@H](CCCNC(=N)N)C(=O)N[C@H](CCCNC(=N)N)C(=O)N[C@H](CCCNC(=N)N)C(=O)N[C@H](CCCNC(=N)N)C(=O)N[C@H](CCCNC(=N)N)C(=O)N[C@H](CCCNC(=N)N)C(N)=O [NP341, dRdRdRdRdRdRdRdRdRdRdRdRdR—CONH (SEQ ID NO: 31)]",0.125,–
"N=C(N)NCCC[C@H](NC(=O)[C@H](CCCNC(=N)N)NC(=O)[C@H](CCCNC(=N)N)NC(=O)[C@H](CCCNC(=N)N)NC(=O)[C@H](CCCNC(=N)N)NC(=O)[C@H](CCCNC(=N)N)NC(=O)[C@H](CCCNC(=N)N)NC(=O)[C@H](CCCNC(=N)N)NC(=O)[C@H](CCCNC(=N)N)NC(=O)[C@H](CCCNC(=N)N)NC(=O)[C@@H](N)CCCNC(=N)N)C(=O)O [NP350, RRRRRRRRRRR (SEQ ID NO: 13)]",–,"Minimum Inhibitory Concentration, antimicrobial activity, Ps. aeruginosa (Ps. aeruginosa): 0.125 mM"
"N=C(N)NCCC[C@H](NC(=O)[C@H](CCCNC(=N)N)NC(=O)[C@H](CCCNC(=N)N)NC(=O)[C@H](CCCNC(=N)N)NC(=O)[C@H](CCCNC(=N)N)NC(=O)[C@H](CCCNC(=N)N)NC(=O)[C@H](CCCNC(=N)N)NC(=O)[C@H](CCCNC(=N)N)NC(=O)[C@H](CCCNC(=N)N)NC(=O)[C@H](CCCNC(=N)N)NC(=O)[C@H](CCCNC(=N)N)NC(=O)[C@H](CCCNC(=N)N)NC(=O)[C@@H](N)CCCNC(=N)N)C(=O)O [NP351, RRRRRRRRRRRRR (SEQ ID NO: 14)]",–,"Minimum Inhibitory Concentration, antimicrobial activity, Ps. aeruginosa (Ps. aeruginosa; [1]): 0.125 mM"
"(H)n, n = 32-161 [NP131]",–,"Minimum Inhibitory Concentration, antimicrobial activity, S. aureus (S. aureus; [2]): >2* mg/ml; Minimum Inhibitory Concentration, antimicrobial activity, P. acnes (P. acnes; [3]): >0.1* mg/ml"
"(H)n, n = >32 [NP132]",–,"Minimum Inhibitory Concentration, antimicrobial activity, P. acnes (P. acnes; [3]): 0.1* mg/ml"
"(K)n, n = 3-14 [NP112]",–,"Minimum Inhibitory Concentration, antimicrobial activity, P. acnes (P. acnes; [3]): 0.1* mg/ml"
"(K)n, n = 7-34 [NP106]",–,"Minimum Inhibitory Concentration, antimicrobial activity, P. acnes (P. acnes; [3]): 0.125* mg/ml"
"(K)n, n = 103-205 [NP101]",–,"Minimum Inhibitory Concentration, antimicrobial activity, Ps. aeruginosa (Ps. aeruginosa; Ps. aeruginosa, values marked * in mg/ml): 0.125* mg/ml; Minimum Inhibitory Concentration, antimicrobial activity, S. aureus (S. aureus; [2]): <0.0313* mg/ml; Minimum Inhibitory Concentration, antimicrobial activity, P. acnes (P. acnes; [3]): 0.1* mg/ml"
"(R)n, n = 86-402 [NP122]",–,"Minimum Inhibitory Concentration, antimicrobial activity, P. acnes (P. acnes; [3]): 0.01* mg/ml"
"(R)n, n = >402 [NP123]",–,"Minimum Inhibitory Concentration, antimicrobial activity, P. acnes (P. acnes; [3]): 0.01* mg/ml"
"GKKEKPEKKVKK [NP331, GKKEKPEKKVKK (SEQ ID NO: 25)]",>2,–
"KKKDKVKK [NP334, KKKDKVKK (SEQ ID NO: 28)]",>2,–
KKKKKEGKKQEKMLD [NP333],>2,–
"KKKKKKKKK [NP345, KKKKKKKKK (SEQ ID NO: 33)]",–,"Minimum Inhibitory Concentration, antimicrobial activity, P. acnes (P. acnes): 2.5 mM"
KKKKKKKKKKKKKKK [NP348],–,"Minimum Inhibitory Concentration, antimicrobial activity, S. aureus (S. aureus; S. aureus, CLSI broth dilution): 0.25 mM; Minimum Inhibitory Concentration, antimicrobial activity, P. acnes (P. acnes; P. acnes, CLSI broth dilution): 0.0625 mM"

Molecule,"Minimum Inhibitory Concentration, antimicrobial activity, S. aureus (S. aureus) [mM]",further results
KLTKPKPQAESKKKKK [NP332],>2,–
"KVRQGTLKKAR [NP335, KVRQGTLKKAR (SEQ ID NO: 29)]",>2,–
PKTKAKAKAKKGKGKD [NP336],>2,–
"RRRRVVRRRR [NP310, RRRRVVRRRR (SEQ ID NO: 10)]",>2,"Minimum Inhibitory Concentration, antimicrobial activity, P. acnes (P. acnes): 0.5 mM"
"RRRVRRR [NP306, RRRVRRR (SEQ ID NO: 6)]",>2,–
"RRRVVRRR [NP308, RRRVVRRR (SEQ ID NO: 8)]",>2,–
"RRRWRRR [NP325, RRRWRRR (SEQ ID NO: 21)]",>2,–
"RRVRR [NP303, RRVRR (SEQ ID NO: 3)]",>2,–
"RRVRRVRR [NP309, RRVRRVRR (SEQ ID NO: 9)]",–,"Minimum Inhibitory Concentration, antimicrobial activity, P. acnes (P. acnes): 1 mM"
"RRVRVR [NP304, RRVRVR (SEQ ID NO: 4)]",>2,–
"RRVRVRR [NP307, RRVRVRR (SEQ ID NO: 7)]",>2,–
"RRVVR [NP302, RRVVR (SEQ ID NO: 2)]",>2,–
"RRVVRR [NP305, RRVVRR (SEQ ID NO: 5)]",>2,–
"RRVVRRVVRR [NP311, RRVVRRVVRR (SEQ ID NO: 11)]",>2,"Minimum Inhibitory Concentration, antimicrobial activity, P. acnes (P. acnes): 2 mM"
"RRWRR [NP322, RRWRR (SEQ ID NO: 18)]",>2,–
"RRWRRWRR [NP328, RRWRRWRR (SEQ ID NO: 24)]",>2,–
"RRWRWR [NP323, RRWRWR (SEQ ID NO: 19)]",>2,–
"RRWRWRR [NP326, RRWRWRR (SEQ ID NO: 22)]",>2,–
"RRWWR [NP321, RRWWR (SEQ ID NO: 17)]",>2,–
"RRWWRR [NP324, RRWWRR (SEQ ID NO: 20)]",1,–
"RVRVR [NP301, RVRVR (SEQ ID NO: 1)]",>2,–
"RWRWR [NP320, RWRWR (SEQ ID NO: 16)]",>2,–
